Like-named read-outs stand apart in the source and are kept apart here.
What was measured:
[1] = system: tubulin; experiment: In vitro tubulin polymerization assay (fluorescence-based); assay type: biochemical; conditions: for effect on tubulin polymerization / microtubules: tested in duplicate on at least two days
Description: In vitro tubulin polymerization assays were performed using a fluorescence-based assay (Cytoskeleton, Inc., Denver, Colo.). […] Aliquots (5 μL) of each compound or control were added to a 96-well black half area plate (Corning Costar, Inc.) pre-warmed to 37° C. Cold tubulin reaction mix (50 μL 1× Buffer—80 mM piperazine-N,N′-bis[2-ethanesulfonic acid]sequisodium salt; 2.0 mM magnesium chloride; 0.5 mM ethylene glycol-bis[β-amino-ethyl ether) N,N,N′,N′-tetra-acetic acid, pH 6.9, 10 μM fluorescent reporter; 20% tubulin glycerol buffer—80 mM piperazine-N,N′-bis[2-ethanesulfonic acid] sequisodium salt; 2.0 mM magnesium chloride; 0.5 mM ethylene glycol-bis(β-amino-ethyl ether) N,N,N′,N′-tetra-acetic acid, 60% v/v glycerol, pH 6.9, 1 mM GTP; and 2 mg mL^−1 tubulin stock) was added to each of the compounds. […] Polymerization curves were generated in Excel after background correction and the effects of test compounds were compared to controls.
Library members that accelerated the rate of tubulin polymerization were deemed microtubule stabilizers, whereas compounds that decelerated the rate of tubulin polymerization were deemed microtubule de-stabilizers.

[2] = system: SF-268; experiment: Cytotoxicity assay (cell titer-glo and calcein AM), SF-268
[3] = system: mouse mammary normal epithelial control cell line; experiment: Cytotoxicity assay, normal control cell line
[4] = system: MCF7; experiment: Cytotoxicity assay (cell titer-glo and calcein AM), MCF7
[5] = system: A549; experiment: Cytotoxicity assay (cell titer-glo and calcein AM), A549
[6] = system: SK-OV-3; experiment: Cytotoxicity assay (cell titer-glo and calcein AM), SK-OV-3
[7] = system: NCI-H460; experiment: Cytotoxicity assay (cell titer-glo and calcein AM), NCI-H460
[8] = system: Hep3B; experiment: Cytotoxicity assay (cell titer-glo and calcein AM), Hep3B
[9] = system: Du145; experiment: Cytotoxicity assay (cell titer-glo and calcein AM), Du145
[10] = system: ADR-RES; experiment: Cytotoxicity assay (cell titer-glo and calcein AM), ADR-RES; conditions: NCI/ADR RES, % error in parentheses
[11] = system: A549 cells; experiment: Drug combination study with colchicine (Chou-Talalay combination index); conditions: for plus colchicine, mean CI / plus colchicine, median CI: combination index, colchicine held at IC10, A549 cells; for interaction with colchicine: drug combination, A549 cells, Chou-Talalay
[12] = system: A549 cells; experiment: Drug combination study with paclitaxel (Chou-Talalay combination index); conditions: for synergy (paclitaxel): combination index class, combination with paclitaxel, Chou-Talalay method; for plus paclitaxel, mean CI / plus paclitaxel, median CI: combination index, paclitaxel held at IC10, A549 cells; for interaction with paclitaxel/taxol: drug combination, A549 cells, Chou-Talalay;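 on all read-outs here: combination indexes averaged only over points where fraction affected exceeded 0.2, with each synergy experiment repeated at least three times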
[13] = read-out: Cytotoxicity IC50, SF-268, CTG, SF-268, CTG (cell titer-glo) readout, % error in parentheses
[14] = read-out: Cytotoxicity IC50, SF-268, calcein, SF-268, calcein AM readout, % error in parentheses
[15] = read-out: Cytotoxicity IC50, NmuMG, CTG, CTG (cell titer-glo) readout, % error in parentheses
[16] = read-out: Cytotoxicity IC50, NmuMG, calcein, calcein AM readout, % error in parentheses
[17] = read-out: Cytotoxicity IC50, MCF7, CTG, CTG (cell titer-glo) readout, % error in parentheses
[18] = read-out: Cytotoxicity IC50, MCF7, calcein, calcein AM readout, % error in parentheses
[19] = read-out: Cytotoxicity IC50, A549, CTG, A549, CTG (cell titer-glo) readout, % error in parentheses
[20] = read-out: Cytotoxicity IC50, A549, calcein, A549, calcein AM readout, % error in parentheses
[21] = read-out: Cytotoxicity IC50, SK-OV-3, CTG, SK-OV-3, CTG (cell titer-glo) readout, % error in parentheses
[22] = read-out: Cytotoxicity IC50, SK-OV-3, calcein, SK-OV-3, calcein AM readout, % error in parentheses
[23] = read-out: Cytotoxicity IC50, NCI-H460, CTG, NCI-H460, CTG (cell titer-glo) readout, % error in parentheses
[24] = read-out: Cytotoxicity IC50, NCI-H460, calcein, NCI-H460, calcein AM readout, % error in parentheses
[25] = read-out: Cytotoxicity IC50, Hep 3B, CTG, Hep 3B, CTG (cell titer-glo) readout, % error in parentheses
[26] = read-out: Cytotoxicity IC50, Hep 3B, calcein, Hep 3B, calcein AM readout, % error in parentheses
[27] = read-out: Cytotoxicity IC50, Du145, CTG, Du145, CTG (cell titer-glo) readout, % error in parentheses
[28] = read-out: Cytotoxicity IC50, Du145, calcein, Du145, calcein AM readout, % error in parentheses
[29] = read-out: Cytotoxicity IC50, NCI/ADR RES, CTG, CTG (cell titer-glo) readout
[30] = read-out: Cytotoxicity IC50, NCI/ADR RES, calcein, calcein AM readout

Compound	effect on tubulin polymerization / microtubules [1]	IC50 [2, 13]	IC50 [2, 14]	IC50 [3, 15]	IC50 [3, 16]	IC50 [4, 17]	IC50 [4, 18]	IC50 [5, 19]	IC50 [5, 20]	IC50 [6, 21]	IC50 [6, 22]	IC50 [7, 23]	IC50 [7, 24]	IC50 [8, 25]	IC50 [8, 26]	IC50 [9, 27]	IC50 [9, 28]	IC50 [10, 29]	IC50 [10, 30]	plus paclitaxel, mean CI [12]	further results
6-deoxy-6-acyl-D-galactoside [Col56]	no apparent effect	1.76 µM	> 1 µM	1.52 µM	1.49 µM	3.13 µM	0.812 µM	1.91 µM	2.09 µM	0.901 µM	1.18 µM	1.55 µM	1.09 µM	1.48 µM	2.23 µM	1.15 µM	1.09 µM	1.16 µM	0.994 µM	–	tubulin polymeriz. [1]: no effect
19-(N-METHOXYAMINO-N-22-DEOXY-D-RIBOSYL)COLCHICINE [Col21]	–	–	–	–	–	–	–	–	–	–	–	–	–	–	–	–	–	–	–	4.96	plus colchicine, mean CI [11]: 1.01; plus colchicine, median CI [11]: 0.64; synergy (paclitaxel) [12]: — (moderate antagonism, Cl 1.2-1.45); plus paclitaxel, median CI [12]: 2.50
COc1cc2c(c(OC)c1OC)-c1ccc(OC)c(=O)cc1[C@@H](NC(=O)CN(OC)[C@H]1C[C@@H](O)[C@H](O)[C@@H](CO)O1)CC2 [Col16, 2-deoxy-D-glucoside]	destabilized microtubules	1.07 µM	1.54 µM	1.61 µM	4.42 µM	2.65 µM	1.92 µM	3.9 µM	1.68 µM	0.432 µM	0.625 µM	0.946 µM	0.808 µM	1.92 µM	1.44 µM	0.705 µM	0.91 µM	1.68 µM	0.899 µM	0.40	plus colchicine, mean CI [11]: 5.97; plus colchicine, median CI [11]: 5.33; interaction with colchicine [11]: antagonism; plus paclitaxel, median CI [12]: 0.11; interaction with paclitaxel/taxol [12]: synergy
COc1cc2c(c(OC)c1OC)-c1ccc(OC)c(=O)cc1[C@@H](NC(=O)CN(OC)[C@@H]1O[C@H](C(=O)O)[C@H](O)[C@H](O)[C@H]1O)CC2 [Col18, D-Galacturonoside]	no effect	0.834 µM	1.11 µM	2.09 µM	2.62 µM	1.16 µM	1.49 µM	1.1 µM	1.07 µM	1.08 µM	1.07 µM	0.993 µM	1.13 µM	2 µM	2.27 µM	1.12 µM	1.19 µM	1.11 µM	0.828 µM	–	–
COc1cc2c(c(OC)c1OC)-c1ccc(OC)c(=O)cc1[C@@H](NC(=O)CN(OC)[C@@H]1O[C@H](CO)[C@@H](O)[C@H](O)[C@H]1F)CC2 [Col34, 2-fluoro-2-deoxy-D-glucoside]	destabilized microtubules	0.281 µM	0.452 µM	0.451 µM	0.76 µM	0.242 µM	0.254 µM	0.545 µM	0.778 µM	0.325 µM	0.8 µM	> 1 µM	> 1 µM	0.545 µM	1.17 µM	–	0.328 µM	> 1 µM	> 1 µM	0.18	plus colchicine, mean CI [11]: 31.49; plus colchicine, median CI [11]: 21.50; interaction with colchicine [11]: strong antagonism; plus paclitaxel, median CI [12]: 0.12; interaction with paclitaxel/taxol [12]: strong synergism
COc1cc2c(c(OC)c1OC)-c1ccc(OC)c(=O)cc1[C@@H](NC(=O)CN(OC)[C@@H]1O[C@H](CO)[C@@H](O[C@H]3O[C@H](CO)[C@@H](O)[C@H](O)[C@H]3O)[C@H](O)[C@H]1O)CC2 [Col38, D-maltoside]	destabilized microtubules	0.16 µM	0.319 µM	0.976 µM	0.875 µM	0.291 µM	–	0.244 µM	0.508 µM	0.252 µM	0.316 µM	0.112 µM	0.487 µM	0.229 µM	1.39 µM	0.215 µM	0.342 µM	0.199 µM	0.173 µM	–	–
COc1cc2c(c(OC)c1OC)-c1ccc(OC)c(=O)cc1[C@@H](NC(=O)CN(OC)[C@@H]1O[C@H](CO)[C@@H](N=[N+]=[N-])[C@H](O)[C@H]1O)CC2 [Col44, 4-deoxy-4-azido-D-glucoside]	destabilized microtubules	0.229 µM	0.412 µM	1.43 µM	3.66 µM	0.596 µM	0.676 µM	0.315 µM	0.649 µM	> 1 µM	> 1 µM	> 1 µM	> 1 µM	0.453 µM	0.671 µM	> 1 µM	> 1 µM	> 1 µM	> 1 µM	–	–
COc1cc2c(c(OC)c1OC)-c1ccc(OC)c(=O)cc1[C@@H](N)CC2 [Col 6, deacetyl colchicine]	–	–	–	–	–	–	–	–	–	–	–	–	–	–	–	–	–	–	–	0.57	plus colchicine, mean CI [11]: 2.32; plus colchicine, median CI [11]: 1.96; interaction with colchicine [11]: antagonism; plus paclitaxel, median CI [12]: 0.20; interaction with paclitaxel/taxol [12]: synergy
COc1cc2c(c(OC)c1OC)-c1ccc(OC)c(=O)cc1[C@@H](NC(C)=O)CC2 [colchicine, reference compound]	–	–	–	–	–	–	–	–	–	–	–	–	–	–	–	–	–	–	–	0.77	synergy (paclitaxel) [12]: ++ (moderate synergism, Cl 0.7-0.85); plus paclitaxel, median CI [12]: 0.18
COc1cccc2c1C(=O)c1c(O)c3c(c(O)c1C2=O)C[C@@](O)(C(=O)CO)C[C@@H]3O[C@H]1C[C@H](N)[C@H](O)[C@H](C)O1 [doxorubicin, reference compound]	no apparent effect	–	–	–	–	–	–	–	–	–	–	–	–	–	–	–	–	–	–	–	tubulin polymeriz. [1]: no effect; IC50 ([2]; Homo sapiens, SF-268, read-out: IC50 (SF-268)): 0.385 µM; IC50 ([5]; Homo sapiens, A549, read-out: IC50 (A549)): 0.77 µM; IC50 ([6]; Homo sapiens, SK-OV-3, read-out: IC50 (SK-OV-3)): 0.621 µM; IC50 ([7]; Homo sapiens, NCI-H460, read-out: IC50 (NCI-H460)): 1 µM; IC50 ([8]; Homo sapiens, Hep3B, read-out: IC50 (Hep3B)): 0.268 µM; IC50 ([9]; Homo sapiens, DU-145, read-out: IC50 (Du145)): 0.339 µM
novioside [Col29]	–	1.12 µM	1.28 µM	> 5 µM	> 5 µM	0.61 µM	0.3 µM	1.86 µM	2.18 µM	1.03 µM	4.35 µM	0.98 µM	3.37 µM	2.47 µM	2.94 µM	1.24 µM	0.55 µM	1.56 µM	1.18 µM	–	–

From US20130012466A1 (priority 2006, published 2013)
